Test results published in publication PMC2993763 (Journal of natural products, 2010).
Values joined by “and” are separate entries in the source; they are usually repeats but may differ in a detail not shown here. Identical values can stand only once.

What was measured:
[1] = system: HT-29 human colon cancer cell line; experiment: Cytotoxicity assay; assay type: cell-based; details: HT-29 cells, three days incubation, SRB stain
[2] = cited from earlier work
[3] = system: P-388 lymphocytic leukemia; details: administered both ip and iv; cited from earlier work

| SMILES | ED50, cytotoxicity HT-29 [1] | activity in the in vivo hollow fiber assay [2] | activity in the P-388 lymphocytic leukemia test system in vivo [3] |
| --- | --- | --- | --- |
| COC(=O)[C@H]1[C@@H](O)[C@@]2(O)c3c(OC)cc(O[C@@H]4O[C@@H]([C@H](O)CO)CO[C@@H]4OC)cc3O[C@@]2(c2ccc(OC)cc2)[C@@H]1c1ccccc1 [Compound 1, 2‴-epi-silvestrol] | 2.3 µM and 2.29 µM | – | – |
| COC(=O)[C@H]1[C@@H](O)[C@@]2(O)c3c(OC)cc(O[C@@H]4O[C@@H]([C@@H](O)CO)CO[C@@H]4OC)cc3O[C@@]2(c2ccc(OC)cc2)[C@@H]1c1ccccc1 [Compound 2, 2‴,5‴-diepi-silvestrol] | 1.1 µM and 1.07 µM | – | – |
| COC(=O)[C@H]1[C@@H](O)[C@@]2(O)c3c(OC)cc(O[C@@H]4O[C@@H]([C@H](O)CO)CO[C@H]4OC)cc3O[C@@]2(c2ccc(OC)cc2)[C@@H]1c1ccccc1 [Compound 7, silvestrol] | 0.0007 µM | active | showed activity |
| COC(=O)[C@H]1[C@@H](O)[C@@]2(O)c3c(OC)cc(O[C@@H]4O[C@@H]([C@@H](O)CO)CO[C@H]4OC)cc3O[C@@]2(c2ccc(OC)cc2)[C@@H]1c1ccccc1 [Compound 8, episilvestrol (5‴-epi-silvestrol)] | 0.001 µM | – | – |
